{
  "source": "patent US7029695B2",
  "about": "“Therapeutic compositions containing glutathione analogs” (Telik, Inc., priority 2001, dated 2006)",
  "key": {"[1]": {"tested_on": "fluorouracil-induced neutropenia", "conditions": "liposomal formulation of Example 4; 35 mg/kg i.v., 8 daily injections after fluorouracil 125 mg/kg i.p.; male CD rats", "method": "Male CD rats (250–300 g) were injected intraperitoneally with either the antineoplastic drug, fluorouracil (125 mg/kg) or an equivalent volume of its vehicle (saline). […] Rats originally injected with saline rather than fluorouracil received saline intravenously (n=7). Blood samples were taken for measurement of neutrophil levels prior to the fluorouracil and every 1 to 2 days thereafter for 14 days."}, "[2]": {"tested_on": "circulating neutrophil levels", "conditions": "liposomal formulation of Example 4; 35 mg/kg i.v., 5 daily injections; normal male CD rats", "excerpt": "Blood samples were taken for measurement of neutrophil levels daily."}},
  "data": [
    {"substance": "γ-Glutamyl-S(benzyl)cysteinyl-R-phenyl glycine diethyl ester hydrochloride [Compound 9]", "values": [
      {"measurement": "recovery from chemotherapy-induced neutropenia", "setting": "[1]", "result": "accelerated recovery"},
      {"measurement": "circulating neutrophil levels", "setting": "[2]", "result": "increased"}
    ]}
  ]
}
